Values quoted from earlier work, collected in US20100248978A1, “METHOD FOR IDENTIFYING THE INTERACTION PARTNER OF AN ACTIVE AGENT” (Bayer Cropscience AG, priority 2007, published 2010).

Molecular target: T1, p-hydroxyphenylpyruvate dioxygenase (HPPD) (Arabidopsis thaliana, UniProt P93836)
T1 sequence (P93836 1-445): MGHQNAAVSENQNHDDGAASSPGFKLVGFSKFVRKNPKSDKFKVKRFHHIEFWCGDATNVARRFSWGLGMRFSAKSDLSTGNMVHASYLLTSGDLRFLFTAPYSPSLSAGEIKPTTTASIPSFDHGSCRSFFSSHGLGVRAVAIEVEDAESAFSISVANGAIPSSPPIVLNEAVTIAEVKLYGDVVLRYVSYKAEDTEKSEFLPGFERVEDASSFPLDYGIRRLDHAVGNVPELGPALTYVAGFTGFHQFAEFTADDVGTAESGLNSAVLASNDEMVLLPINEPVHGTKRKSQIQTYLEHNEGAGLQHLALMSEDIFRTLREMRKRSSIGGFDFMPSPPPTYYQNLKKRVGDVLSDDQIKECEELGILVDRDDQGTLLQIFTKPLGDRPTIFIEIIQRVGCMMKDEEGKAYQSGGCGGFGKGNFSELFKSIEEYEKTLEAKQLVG

For `CS(=O)(=O)c1ccc(C(=O)C2C(=O)CCCC2=O)c(Cl)c1` [sulcotrione], the “inhibition of HPPD” value is listed as “inhibits”.
